Reference: patent US10023590B2, “Substituted pyridine compounds having herbicidal activity” (BASF SE, priority 2014, dated 2018)

Key:
Type in all cases: in vivo
Amaranthus retroflexus = assay: Greenhouse post-emergence herbicidal activity, AMARE; conditions: AMARE; for pest or weed control at 2000 g/ha: 2 kg/ha, scale 0 to 100, read-out: Herbicidal activity
Excerpt: (§1) The culture containers used were plastic flowerpots containing loamy sand with approximately 3.0% of humus as the substrate. The seeds of the test plants were sown separately for each species.
(§2) For the post-emergence treatment, the test plants were first grown to a height of 3 to 15 cm, depending on the plant habit, and only then treated with the active ingredients which had been suspended or emulsified in water. For this purpose, the test plants were either sown directly and grown in the same containers, or they were first grown separately as seedlings and transplanted into the test containers a few days prior to treatment.
(§3) Depending on the species, the plants were kept at 10-25° C. or 20-35° C., respectively.
(§4) The test period extended over 2 to 4 weeks. During this time, the plants were tended, and their response to the individual treatments was evaluated.
(§5) Evaluation was carried out using a scale from 0 to 100. 100 means no emergence of the plants, or complete destruction of at least the aerial moieties, and 0 means no damage, or normal course of growth. A good herbicidal activity is given at values of at least 70 and a very good herbicidal activity is given at values of at least 85.

Ambrosia artemisiifolia = assay: Greenhouse post-emergence herbicidal activity, AMBEL; conditions: scale 0 to 100
Excerpt: as §1, §2, §3, §4, §5

Chenopodium album = assay: Greenhouse post-emergence herbicidal activity, CHEAL
Excerpt: as §1, §2, §3, §4, §5

Echinocloa crus-galli = assay: Greenhouse post-emergence herbicidal activity, ECHCG; conditions: Echinochloa crus-galli, ECHCG; for pest or weed control at 2000 g/ha: 2 kg/ha, scale 0 to 100, read-out: Herbicidal activity
Excerpt: as §1, §2, §3, §4, §5

Kochia scoparia = assay: Greenhouse post-emergence herbicidal activity, KCHSC; conditions: scale 0 to 100
Excerpt: as §1, §2, §3, §4, §5

Oryza sativa = assay: Greenhouse post-emergence herbicidal activity on crop ORYSA (rice)
Excerpt: as §1, §2, §3, §4, §5

Setaria viridis = assay: Greenhouse post-emergence herbicidal activity, SETVI
Excerpt: as §1, §2, §3, §4, §5

Stellaria media = assay: Greenhouse post-emergence herbicidal activity, STEME
Excerpt: as §1, §2, §3, §4, §5

Veronica arvensis = assay: Greenhouse post-emergence herbicidal activity, VERAR; conditions: scale 0 to 100
Excerpt: as §1, §2, §3, §4, §5

Zea mays = assay: Greenhouse post-emergence herbicidal activity on crop ZEAMX (corn, maize); design: key: 0 = no damage/normal growth, 100 = no emergence or complete destruction
Excerpt: as §1, §2, §3, §4, §5

Eriochloa villosa = assay: Greenhouse post-emergence herbicidal activity, ERBVI; conditions: 0.031 kg/ha, scale 0 to 100
Excerpt: as §1, §2, §3, §4, §5

Setaria faberi = assay: Greenhouse post-emergence herbicidal activity, SETFA; conditions: 0.25 kg/ha, scale 0 to 100
Excerpt: as §1, §2, §3, §4, §5

Abutilon theophrasti = assay: Greenhouse post-emergence herbicidal activity, ABUTH; conditions: ABUTH; for pest or weed control at 2000 g/ha: 2 kg/ha, scale 0 to 100, read-out: Herbicidal activity
Excerpt: as §1, §2, §3, §4, §5

Capsella bursa-pastoris = assay: Greenhouse post-emergence herbicidal activity, CAPBP; conditions: 0.063 kg/ha, scale 0 to 100
Excerpt: as §1, §2, §3, §4, §5

Cirsium arvense = assay: Greenhouse post-emergence herbicidal activity, CIRAR; conditions: CIRAR, 0.063 kg/ha, scale 0 to 100, read-out: Herbicidal activity
Excerpt: as §1, §2, §3, §4, §5

[1] = ORYSA (rice, crop), 0.031 kg/ha, scale 0 to 100
[2] = ORYSA (rice, crop), 0.063 kg/ha, scale 0 to 100
[3] = ORYSA (rice, crop), 0.125 kg/ha, scale 0 to 100
[4] = ZEAMX (corn, crop), 0.031 kg/ha, scale 0 to 100
[5] = ZEAMX (corn, crop), 0.063 kg/ha, scale 0 to 100
[6] = ZEAMX (corn, crop), 0.125 kg/ha, scale 0 to 100
[7] = crop ZEAMX (corn, maize), application rate 0.031 kg/ha

Row | SMILES | pest or weed control at 2000 g/ha (Amaranthus retroflexus) | pest or weed control at 31 g/ha (Chenopodium album; 0.031 kg/ha, scale 0 to 100) | pest or weed control at 125 g/ha (Chenopodium album; 0.125 kg/ha, scale 0 to 100) | Herbicidal activity (Oryza sativa; [1]) | Herbicidal activity (Oryza sativa; [2]) | Herbicidal activity (Oryza sativa; [3]) | Herbicidal activity (Setaria viridis; 2 kg/ha, scale 0 to 100) | Herbicidal activity (Zea mays; [4]) | Herbicidal activity (Zea mays; [5]) | Herbicidal activity (Zea mays; [6]) | pest or weed control at 31 g/ha (Amaranthus retroflexus; 0.031 kg/ha, scale 0 to 100) | pest or weed control at 63 g/ha (Amaranthus retroflexus; 0.063 kg/ha, scale 0 to 100) | pest or weed control at 125 g/ha (Amaranthus retroflexus; 0.125 kg/ha, scale 0 to 100) | pest or weed control at 63 g/ha (Chenopodium album; 0.063 kg/ha, scale 0 to 100) | pest or weed control at 63 g/ha (Echinocloa crus-galli; 0.063 kg/ha, scale 0 to 100) | pest or weed control at 125 g/ha (Echinocloa crus-galli; 0.125 kg/ha, scale 0 to 100) | pest or weed control at 31 g/ha (Echinocloa crus-galli; 0.031 kg/ha, scale 0 to 100) | also measured
1 | Cc1c(C2=C(O)c3ncccc3C(C)(C)S2(=O)=O)cccc1N(C)S(C)(=O)=O [I-14, N-[3-(8-hydroxy-5,5-dimethyl-6,6-dioxo-thiopyrano[4,3-b]pyridin-7-yl)-2-methyl-phenyl]-N-methyl-methanesulfonamide] | 100% | 98% | 100% | 0 | 0 | 10 | 100 | 15 | 20 | 35 |  |  |  |  |  |  |  | Herbicidal activity (Ambrosia artemisiifolia; 0.063 kg/ha): 100; Herbicidal activity (Ambrosia artemisiifolia; 0.125 kg/ha): 100; pest or weed control at 2000 g/ha (Echinocloa crus-galli): 98%; Herbicidal activity (Kochia scoparia; 0.031 kg/ha): 95; Herbicidal activity (Kochia scoparia; 0.063 kg/ha): 100; Herbicidal activity (Stellaria media; 0.125 kg/ha, scale 0 to 100): 100; Herbicidal activity (Veronica arvensis; 0.031 kg/ha): 100; Herbicidal activity (Veronica arvensis; 0.063 kg/ha): 100
2 | CN(c1c(Cl)ccc(C2=C(O)c3ncccc3C(C)(C)S2(=O)=O)c1Cl)S(=O)(=O)C1CC1 [I-28, N-[2,6-dichloro-3-(8-hydroxy-5,5-dimethyl-6,6-dioxo-thiopyrano[4,3-b]pyridin-7-yl)phenyl]-N-methyl-cyclopropanesulfonamide] |  | 98% | 98% |  |  |  |  | 20 | 30 |  | 98% | 98% | 98% | 98% | 98% | 100% |  | pest or weed control at 250 g/ha (Amaranthus retroflexus; 0.25 kg/ha, scale 0 to 100): 98%; pest or weed control at 250 g/ha (Echinocloa crus-galli; 0.25 kg/ha, scale 0 to 100): 100%; Herbicidal activity (Eriochloa villosa): 95; Herbicidal activity (Setaria faberi): 100
3 | Cc1c(C2=C(O)c3ncccc3C(C)(C)S2(=O)=O)ccc(Cl)c1N(C)S(C)(=O)=O [I-29, N-[6-chloro-3-(8-hydroxy-5,5-dimethyl-6,6-dioxo-thiopyrano[4,3-b]pyridin-7-yl)-2-methyl-phenyl]-N-methyl-methanesulfonamide] |  | 98% | 98% | 0 | 25 | 35 |  | 0 | 5 | 15 | 95% | 95% | 98% | 98% | 90% | 95% | 85% | pest or weed control at 250 g/ha (Amaranthus retroflexus; 0.25 kg/ha, scale 0 to 100): 98%; pest or weed control at 250 g/ha (Chenopodium album; 0.25 kg/ha, scale 0 to 100): 98%; Herbicidal activity (Stellaria media; 0.25 kg/ha, scale 0 to 100): 98
4 | CC(C)N(c1c(Cl)ccc(C2=C(O)c3ncccc3CS2(=O)=O)c1Cl)S(C)(=O)=O [I-10, N-[2,6-dichloro-3-(8-hydroxy-6,6-dioxo-5H-thiopyrano[4,3-b]pyridin-7-yl)phenyl]-N-isopropyl-methanesulfonamide] | 100% | 85% | 90% | 10 | 10 | 15 | 98 |  |  | 10 |  |  | 70% | 85% |  |  |  | pest or weed control at 2000 g/ha (Abutilon theophrasti): 98%
5 | CN(C)S(=O)(=O)Oc1c(Cl)ccc(C2=C(O)c3ncccc3CS2(=O)=O)c1Cl [I-22] | 100% |  | 100% | 30 | 35 | 40 | 98 | 0 | 0 | 15 |  | 70% | 75% | 95% | 90% | 95% | 80% | pest or weed control at 2000 g/ha (Echinocloa crus-galli): 100%
6 | CN(c1c(Cl)ccc(C2=C(O)c3ncc(F)cc3C(C)(C)S2(=O)=O)c1Cl)S(C)(=O)=O [I-38, N-[2,6-dichloro-3-(3-fluoro-8-hydroxy-5,5-dimethyl-6,6-dioxo-thiopyrano[4,3-b]pyridin-7-yl)phenyl]-N-methyl-methanesulfonamide] |  |  |  |  |  |  |  |  |  |  |  |  |  |  |  |  |  | pest or weed control at 31 g/ha (Amaranthus retroflexus; application rate 0.031 kg/ha): 98%; pest or weed control at 63 g/ha (Amaranthus retroflexus; application rate 0.063 kg/ha): 98%; pest or weed control at 125 g/ha (Amaranthus retroflexus; application rate 0.125 kg/ha): 98%; pest or weed control at 31 g/ha (Chenopodium album; application rate 0.031 kg/ha): 98%; pest or weed control at 63 g/ha (Chenopodium album; application rate 0.063 kg/ha): 95%; pest or weed control at 125 g/ha (Chenopodium album; application rate 0.125 kg/ha): 98%; pest or weed control at 31 g/ha (Echinocloa crus-galli; application rate 0.031 kg/ha): 95%; pest or weed control at 63 g/ha (Echinocloa crus-galli; application rate 0.063 kg/ha): 95%; pest or weed control at 125 g/ha (Echinocloa crus-galli; application rate 0.125 kg/ha): 100%; Herbicidal activity (Oryza sativa; crop ORYSA (rice), application rate 0.031 kg/ha): 35; Herbicidal activity (Setaria viridis; application rate 0.125 kg/ha): 100; Herbicidal activity (Zea mays; [7]): 0; Herbicidal activity (Zea mays; crop ZEAMX (corn, maize), application rate 0.063 kg/ha): 0; Herbicidal activity (Zea mays; crop ZEAMX (corn, maize), application rate 0.125 kg/ha): 15
7 | CN(c1c(Cl)ccc(C2=C(O)c3ncccc3CS2(=O)=O)c1C(F)(F)F)S(C)(=O)=O [I-31, N-[6-chloro-3-(8-hydroxy-6,6-dioxo-5H-thiopyrano[4,3-b]pyridin-7-yl)-2-(trifluoromethyl)phenyl]-N-methyl-methanesulfonamide] |  |  |  |  |  |  |  |  |  |  |  |  |  |  |  |  |  | pest or weed control at 31 g/ha (Abutilon theophrasti; application rate 0.031 kg/ha): 70%; pest or weed control at 63 g/ha (Abutilon theophrasti; application rate 0.063 kg/ha): 90%; pest or weed control at 125 g/ha (Amaranthus retroflexus; application rate 0.125 kg/ha): 98%; pest or weed control at 250 g/ha (Amaranthus retroflexus; application rate 0.25 kg/ha): 98%; pest or weed control at 63 g/ha (Chenopodium album; application rate 0.063 kg/ha): 98%; pest or weed control at 125 g/ha (Chenopodium album; application rate 0.125 kg/ha): 98%; pest or weed control at 250 g/ha (Chenopodium album; application rate 0.25 kg/ha): 98%; pest or weed control at 125 g/ha (Echinocloa crus-galli; application rate 0.125 kg/ha): 98%; pest or weed control at 250 g/ha (Echinocloa crus-galli; application rate 0.25 kg/ha): 98%; Herbicidal activity (Stellaria media; application rate 0.031 kg/ha): 80; Herbicidal activity (Stellaria media; application rate 0.063 kg/ha): 100; Herbicidal activity (Zea mays; [7]): 5
8 | CCS(=O)(=O)N(C)c1c(Cl)ccc(C2=C(O)c3ncccc3C(C)(C)S2(=O)=O)c1Cl [I-19, N-[2,6-dichloro-3-(8-hydroxy-5,5-dimethyl-6,6-dioxo-thiopyrano[4,3-b]pyridin-7-yl)phenyl]-N-methyl-ethanesulfonamide] | 100% | 98% | 100% |  |  |  | 100 |  | 0 |  | 98% | 100% | 100% |  |  | 100% | 98% | pest or weed control at 2000 g/ha (Abutilon theophrasti): 98%; Herbicidal activity (Capsella bursa-pastoris): 100; pest or weed control at 63 g/ha (Cirsium arvense): 100%
